# Laboratory results reported in ChEMBL document CHEMBL1201862, “PubChem BioAssay data set” (2004).
#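 Dose response: 5 concentrations. Exposure: 48 h. Format: 96-well plates. Endpoint: linear interpolation; highest concentration if not reached. GI50: concentration for 50% inhibition of growth.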 Calls of active or inactive are those of the source. Rule as the data show it: active = GI50 up to about 1.1 µM and inactive = higher.
# Experiments:
# Experiment in all cases: NCI tumour cell line growth inhibition, 48 h
# [1] = system: IGROV-1
# [2] = system: MOLT-4
# [3] = system: HT-29
# [4] = system: UACC-62
# [5] = system: SW-620
# [6] = system: SNB-19
# [7] = system: MDA-N
# [8] = system: SK-MEL-5
# [9] = system: SK-MEL-2
# [10] = system: SNB-75
# [11] = system: M14
# [12] = system: HCT-116
# [13] = system: U-251
# [14] = system: OVCAR-5
# [15] = system: A498
# [16] = system: TK-10
# [17] = system: HOP-92
# [18] = system: OVCAR-4
# [19] = system: RXF 393
# [20] = system: SK-MEL-28
Compound,GI50 [1],GI50 [2],GI50 [3],GI50 [4],GI50 [5],GI50 [6],GI50 [7],GI50 [8],GI50 [9],GI50 [10],GI50 [11],GI50 [12],GI50 [13],GI50 [14],GI50 [15],GI50 [16],GI50 [17],GI50 [18],GI50 [19],GI50 [20]
CO/N=C(/C)c1cccc(Nc2nc3ccccc3c3[nH]c4ccccc4c23)c1,13.5 µM (inactive),3.96 µM (inactive),2.49 µM (inactive),6.03 µM (inactive),10.1 µM (inactive),12.9 µM (inactive),8.3 µM (inactive),5.62 µM (inactive),10.7 µM (inactive),0.302 µM (active),7.69 µM (inactive),3.16 µM (inactive),13.5 µM (inactive),6.82 µM (inactive),,,,,,
NNC(=S)N/N=C/C(Cl)=C(\Cl)C(=O)O,> 100 µM (inactive),> 100 µM (inactive),> 100 µM (inactive),> 100 µM (inactive),> 100 µM (inactive),> 100 µM (inactive),,> 100 µM (inactive),> 100 µM (inactive),> 100 µM (inactive),> 100 µM (inactive),> 100 µM (inactive),> 100 µM (inactive),> 100 µM (inactive),> 100 µM (inactive),> 100 µM (inactive),> 100 µM (inactive),> 100 µM (inactive),> 100 µM (inactive),> 100 µM (inactive)
CC1CCC2CC1NC(=O)CCOCCC(=O)NC2(C)C (stereo not given),> 100 µM (inactive),> 100 µM (inactive),> 100 µM (inactive),> 100 µM (inactive),> 100 µM (inactive),> 100 µM (inactive),> 100 µM (inactive),> 100 µM (inactive),,> 100 µM (inactive),> 100 µM (inactive),> 100 µM (inactive),> 100 µM (inactive),> 100 µM (inactive),,> 100 µM (inactive),> 100 µM (inactive),> 100 µM (inactive),,> 100 µM (inactive)
NC1CSc2ccccc2NC1=O (stereo not given),> 100 µM (inactive),> 100 µM (inactive),> 100 µM (inactive),> 100 µM (inactive),> 100 µM (inactive),> 100 µM (inactive),> 100 µM (inactive),> 100 µM (inactive),> 100 µM (inactive),> 100 µM (inactive),> 100 µM (inactive),> 100 µM (inactive),> 100 µM (inactive),> 100 µM (inactive),,> 100 µM (inactive),,> 100 µM (inactive),> 100 µM (inactive),> 100 µM (inactive)
CC12CCC(=O)[C@@]1(C)CCCC2=O (stereo not given in full),> 100 µM (inactive),> 100 µM (inactive),> 100 µM (inactive),> 100 µM (inactive),> 100 µM (inactive),> 100 µM (inactive),> 100 µM (inactive),> 10 µM (inactive),> 100 µM (inactive),> 10 µM (inactive),> 100 µM (inactive),> 100 µM (inactive),> 100 µM (inactive),> 100 µM (inactive),,> 100 µM (inactive),,> 100 µM (inactive),42.2 µM (inactive),> 100 µM (inactive)
Nc1nc(O)c2nc(N)n(Cc3ccccc3)c2n1,> 100 µM (inactive),> 100 µM (inactive),> 100 µM (inactive),> 100 µM (inactive),> 100 µM (inactive),> 100 µM (inactive),,> 100 µM (inactive),> 100 µM (inactive),> 100 µM (inactive),> 100 µM (inactive),> 100 µM (inactive),> 100 µM (inactive),> 100 µM (inactive),> 100 µM (inactive),> 100 µM (inactive),> 100 µM (inactive),> 100 µM (inactive),> 100 µM (inactive),> 100 µM (inactive)
